# Where two headings read alike, the source gives them in different places.
# System: panel of 140 standard cancer cell lines
# Assay: ProliFiler-140 cancer cell line screen (CellTiterGlo, 72 h)
# Format: cell-based
# Conditions: Homo sapiens
# Method: Incubations were performed for 72 h before automated viability readout with CellTiterGlo (Figure 8).
# End of Figure S11 (part 5 of 5): ProliFiler-140 cancer cell line screening for cytotoxicity of the prodrugs.
# 8-data-point dose response curves from CellTiter-Glo® viability readout.
# ProliFiler-140 cell line panel part V
smiles,measurement,setting,value
"COc1cccc2c1C(=O)c1c(O)c3c(c(O)c1C2=O)C[C@@](O)(C(=O)CO)C[C@@H]3O[C@H]1C[C@H](N)[C@H](O)[C@H](C)O1 [doxorubicin, reference compound]",IC50,"DV-90, DV90 (Lung), read-out: IC50 [M] (ProliFiler-140)",1.9e-08 M
same,IC50,"Detroit 562, Detroit562 (Head/Neck), read-out: IC50 [M] (ProliFiler-140)",1.54e-07 M
same,IC50,"EFM-19, EFM-19 (Breast), read-out: IC50 [M] (ProliFiler-140)",4.7e-07 M
same,IC50,"EFO-27, EFO-27 (Ovary), read-out: IC50 [M] (ProliFiler-140)",2.9e-07 M
same,IC50,"EPLC-272H, EPLC-272H (Lung), read-out: IC50 [M] (ProliFiler-140)",1.97e-07 M
same,IC50,"HCC38, HCC38 (Breast), read-out: IC50 [M] (ProliFiler-140)",5.21e-08 M
same,IC50,"HCC827, HCC827 (Lung), read-out: IC50 [M] (ProliFiler-140)",3.5e-07 M
same,IC50,"HCC1569, HCC 1569 (Breast), read-out: IC50 [M] (ProliFiler-140)",7e-07 M
same,IC50,"HCT-15, HCT-15 (Colon), read-out: IC50 [M] (ProliFiler-140)",6.43e-07 M
same,IC50,"HCT-116, HCT116 (Colon), read-out: IC50 [M] (ProliFiler-140)",1.07e-07 M
same,IC50,"HCT-116, HCT116, read-out: IC50",1.1e-07 M
same,IC50,"HEC-1-A, HEC-1-A (Endometrium), read-out: IC50 [M] (ProliFiler-140)",3.3e-07 M
same,IC50,"HEC-1B, HEC-1-B (Endometrium), read-out: IC50 [M] (ProliFiler-140)",2.4e-06 M
same,IC50,"HL-60, HL-60 (Blood), read-out: IC50 [M] (ProliFiler-140)",2.6e-08 M
same,IC50,"HL-60, HL-60, read-out: IC50",2.6e-08 M
same,IC50,"HT-29, HT-29 (Colon), read-out: IC50 [M] (ProliFiler-140)",3.7e-07 M
same,IC50,"HT-29, HT-29, read-out: IC50",3.7e-07 M
same,IC50,"HT-1080, HT-1080 (Fibrosarcoma), read-out: IC50 [M] (ProliFiler-140)",7.6e-08 M
same,IC50,"HeLa, HeLa (Cervix), read-out: IC50 [M] (ProliFiler-140)",8.04e-08 M
same,IC50,"Hs746T, Hs 746T (Stomach), read-out: IC50 [M] (ProliFiler-140)",4e-07 M
same,IC50,"HuTu80, Hutu 80 (Duodenum), read-out: IC50 [M] (ProliFiler-140)",1.87e-08 M
same,IC50,"Huh-7, HuH7 (Liver), read-out: IC50 [M] (ProliFiler-140)",2.1e-07 M
same,IC50,"Ishikawa, Ishikawa (Endometrium), read-out: IC50 [M] (ProliFiler-140)",7.7e-08 M
same,IC50,"JIMT-1, JIMT-1 (Breast), read-out: IC50 [M] (ProliFiler-140)",1.3e-06 M
same,IC50,"JVM-3, JVM-3 (Blood), read-out: IC50 [M] (ProliFiler-140)",3e-08 M
same,IC50,"Jurkat, Jurkat (Blood), read-out: IC50 [M] (ProliFiler-140)",4.01e-08 M
same,IC50,"K562, K562 (Blood), read-out: IC50 [M] (ProliFiler-140)",4.4e-07 M
same,IC50,"KARPAS-299, KARPAS 299 (Blood), read-out: IC50 [M] (ProliFiler-140)",7.32e-08 M
same,IC50,"KATO III, Kato III (Stomach), read-out: IC50 [M] (ProliFiler-140)",9e-07 M
same,IC50,"KG-1a, KG-1 a (Blood), read-out: IC50 [M] (ProliFiler-140)",4.91e-07 M
same,IC50,"KMS-12-BM, KMS-12-BM (Blood), read-out: IC50 [M] (ProliFiler-140)",1.65e-07 M
same,IC50,"LN-229, LN229 (Brain), read-out: IC50 [M] (ProliFiler-140)",2.16e-07 M
same,IC50,"LNCaP, LnCap (Prostate), read-out: IC50 [M] (ProliFiler-140)",1.9e-07 M
same,IC50,"LoVo, LOVO (Colon), read-out: IC50 [M] (ProliFiler-140)",1.11e-07 M
same,IC50,"MDA-MB-435, MDA MB 435 (Skin), read-out: IC50 [M] (ProliFiler-140)",4.8e-07 M
same,IC50,"MDA-MB-468, MDA-MB-468 (Breast), read-out: IC50 [M] (ProliFiler-140)",4.7e-08 M
same,IC50,"MEC1, MEC-1 (Blood), read-out: IC50 [M] (ProliFiler-140)",7.3e-08 M
same,IC50,"MIA PaCa-2, Mia PaCA 2 (Pancreas), read-out: IC50 [M] (ProliFiler-140)",7.37e-08 M
same,IC50,"MKN-1, MKN-1 (Stomach), read-out: IC50 [M] (ProliFiler-140)",5.2e-08 M
same,IC50,"MKN-45, MKN-45 (Stomach), read-out: IC50 [M] (ProliFiler-140)",3.16e-07 M
same,IC50,"MOLM-13, MOLM-13 (Blood), read-out: IC50 [M] (ProliFiler-140)",2.1e-08 M
same,IC50,"MOLT-4, MOLT-4 (Blood), read-out: IC50 [M] (ProliFiler-140)",2.6e-08 M
same,IC50,"MOLT-4, MOLT-4, read-out: IC50",2.6e-08 M
same,IC50,"MV4-11, MV4-11 (Blood), read-out: IC50 [M] (ProliFiler-140)",4.3e-09 M
same,IC50,"NALM-6, NALM-6 (Blood), read-out: IC50 [M] (ProliFiler-140)",2.3e-08 M
same,IC50,"NCI-H82, NCI-H82 (Lung), read-out: IC50 [M] (ProliFiler-140)",6.2e-07 M
same,IC50,"NCI-H292, NCI-H292 (Lung), read-out: IC50 [M] (ProliFiler-140)",7.2e-08 M
same,IC50,"NCI-H441, NCI-H441 (Lung), read-out: IC50 [M] (ProliFiler-140)",3.49e-07 M
same,IC50,"NCI-H460, H460 (Lung), read-out: IC50 [M] (ProliFiler-140)",2.6e-08 M
same,IC50,"NCI-H838, NCI-H838 (Lung), read-out: IC50 [M] (ProliFiler-140)",1.5e-07 M
same,IC50,"NCI-H1048, NCI-H1048 (Lung), read-out: IC50 [M] (ProliFiler-140)",3.2e-08 M
same,IC50,"NCI-H1299, H1299 (Lung), read-out: IC50 [M] (ProliFiler-140)",2.23e-07 M
same,IC50,"NCI-H1437, NCI-H1437 (Lung), read-out: IC50 [M] (ProliFiler-140)",1.39e-07 M
same,IC50,"NCI-H1563, NCI-H1563 (Lung), read-out: IC50 [M] (ProliFiler-140)",5.4e-07 M
same,IC50,"NCI-H1573, NCI-H1573 (Lung), read-out: IC50 [M] (ProliFiler-140)",3e-06 M
same,IC50,"NCI-H1581, NCI-H1581 (Lung), read-out: IC50 [M] (ProliFiler-140)",1.47e-07 M
same,IC50,"NCI-H1703, NCI-H1703 (Lung), read-out: IC50 [M] (ProliFiler-140)",9.2e-08 M
same,IC50,"NCI-H1838, NCI-H1838 (Lung), read-out: IC50 [M] (ProliFiler-140)",2.5e-07 M
